Reference: patent US20060099712A1, “Correlation of anti-cancer activity of dyes with redox potentials” (Eastman Kodak Company, priority 2004, published 2006)

Assay: Electrochemical reduction potential (Er) measurement, SHACV / fast scan CV
Assay type: physicochemical
Conditions: for Er: Table XIX, reduction potential vs. Ag/AgCl, in V (unit assumed)
Description: In the practice of this invention the reduction potential of a given dye may be determined in various ways. If available, the published reduction potential may be employed. Reduction potentials for numerous cyanine and merocyanine dyes are available in the literature. (See J. Lenhard, Journal of Imaging Science, vol. 30 pp. 27-35 (1986).) A large amount of data has been generated on the reduction and oxidation potentials of these dyes from their use in photography and related arts where they are employed, inter alia, as spectral sensitizers.
If a published reduction potential is not available, suitable techniques for measuring reduction potential are available. Accurate electrochemical oxidation and reduction potentials for these organic dyes can be measured by the techniques of fast scan cyclic voltommetry (CV) or second harmonic ac voltommetry (SHACV). SHACV measurements are made as described by Lenhard in the Journal of Imaging Science volume 30, 1986 pp 27-35 using a commercially available (Princeton Applied Research Corp.) potentiostat in conjunction with voltage programmer, a conventional lock-in amplifier, and a low-distortion oscillator. The SHACV method utilizes an ac voltage waveform (of a frequency greater than or equal to 400 hz) that is superimposed on a DC potential ramp. On the other hand, the measurement of the oxidation or reduction potential by the CV method utilizes a (high frequency) triangular voltage waveform. The general procedures for measuring potentials by this method have been described by Wightman in Analytical Chemistry, 1984, vol. 56, pp524 and Journal of Physical Chemistry, 1984, vol. 88, pp3915. The specific application of this technique to the measurement of cyanine dye potentials has been reported by Nomura and Okazaki, Chemistry Letters, 1990, pp2231-2234. Commercial instrumentation especially designed for fast scan (i.e., high frequency) CV is available. It is noteworthy that because of the complicated nature of many of the cyanine dyes, electrochemical reactions, conventional slow scan cyclic voltommetry or polarography methods (as described by R. Large in Photographic Sensitivity, R. Cox, ed., Academic Press, New York, 1973, pp 241-263) provide only approximate values for oxidation and reduction potentials. Errors as large as 0.4 V from the true potential can be obtained by using slow scan CV or electrochemical methods.
The procedure for measuring the oxidation or reduction potential by the SHACV or fast scan CV method utilizes solutions of acetonitrile (or similar nonaqueous solvent) with added tetrabutylammonium tetrafluoroborate TBABF4 at a concentration of 0.1 M and ca. 5×10^−4 M of the cyanine, oxonol, or merocyanine dye. For measurement of the reduction potential the solution must be deaerated with argon prior to examination. The preferred working electrode is a Pt disk (ca. 0.02 cm^2) that is polished with 1 μm diamond paste, rinsed with water, and dried before each experiment. The reference electrode is a NaCl saturated calomel electrode. The cell and reference electrodes are maintained at 22 C. A value of 40 mV is added to the measured potentials to convert the number to that corresponding to an Ag/AgCl reference electrode. If a solvent other than acetonitrile is used then the measured potential must be referenced to a standard organic redox system such as ferrocene and corrected accordingly.
SHACV (Second Harmonic Alternating Current Voltametry) measurements are made as described by Lenhard in the Journal of Imaging Science volume 30, 1986 pp 27-35 using a commercially available (Princeton Applied Research Corp.) potentiostat in conjunction with voltage programmer, a conventional lock-in amplifier, and a low-distortion oscillator. The SHACV method utilizes an ac voltage waveform (of a frequency greater than or equal to 400 hz) that is superimposed on a DC potential ramp. […]

| ER(v), electrochemical reduction potential | Er | Compound |
| --- | --- | --- |
| −.920 V | – | CCN1C(=CC=Cc2sc3cc4ccccc4cc3[n+]2CC)Sc2cc3ccccc3cc21 [AC-2] |
| −0.68 V | – | COc1cccc2c1C(=O)c1c(O)c3c(c(O)c1C2=O)C[C@@](O)(C(=O)CO)C[C@@H]3O[C@H]1C[C@H](N)[C@H](O)[C@H](C)O1 [Adriamycin, reference compound] |
| −1.06 V | −1.060 | CCN1/C(=C/C=C/c2sc3ccccc3[n+]2CC)Sc2ccccc21.[I-] [Dye D-101] |
| – | −0.920 | CCN1/C(=C/C=C/c2sc3cc4ccccc4cc3[n+]2CC)Sc2cc3ccccc3cc21 [Dye D-109] |
| −.808 V | −0.808 | CCN1C(=CC=Cc2sc3cc4ccccc4nc3[n+]2CC)Sc2cc3ccccc3nc21 [Dye D-150] |
| – | −0.920 | CCN1/C(=C/C=C/c2sc3cc4ccccc4cc3[n+]2CC)Sc2cc3ccccc3cc21 [Dye D-160] |

| Compound | ER(v), electrochemical reduction potential | Er |
| --- | --- | --- |
| CCN1/C(=C\C=C\C2=[N+](CC)c3ccccc3C2(C)C)C(C)(C)c2ccccc21 [Dye D-103] | – | −1.000 |
